# Measurements taken from patent US7989613B2, “Inhibition of metallo-β-lactamase by RNA” (priority 2005, dated 2011).
# Entries after “also recorded” stand apart in the source; their conditions may differ. Like-named read-outs stand apart in the source and are kept apart here.
# Assays:
# [1] = target: B. cereus 5/B/6 metallo-β-lactamase (Bacillus cereus, UniProt P14488); details: for IC50: […] cephalosporin C; for Ki: steady-state kinetics
# Method: Assay of the purified B. cereus 5/B/6 metallo-β-lactamase and B. cereus 569/H/9 β-lactamase I. Metallo-β-lactamase activity assays using cephalosporin C as substrate were determined as previously reported (Myers and Shaw, 1989). The cephalosporin C absorbance maximum at 260 nm was monitored as a function of time (Davies et al., 1974). One unit of activity is generally defined as the amount of enzyme required to catalyze the hydrolysis of about 1 μmol of β-lactam substrate (cephalosporin C) per minute at 30° C. at pH 7.0. […] The assays were carried out at 30° C. in a 0.1 cm path length quartz cell and the total assay volume was 250 μL.
# Reversible inhibition studies for metallo-β-lactamase. To test for reversible inhibition, metallo-β-lactamase was incubated with various concentrations of the possible inhibitors in 50 mM MOPS buffer, pH 7.0. The enzyme activity remaining was determined (Myers and Shaw, 1989).
# Various assays were conducted with the 30-mer RNA in the presence of metallo-β-lactamase to determine its inhibition values (IC50, Ki, and Ki′). The 30-mer RNA was tested for inhibition of β-lactamase I and bovine carboxypeptidase A. The 30-mer RNA was also tested for inhibition of metallo-β-lactamase in the presence of Zn^2+.
# 30-mer RNA. The IC50 value for the 30-mer RNA was determined by measuring the rate of enzymatic hydrolysis of cephalosporin C with different amounts of the 30-mer RNA.
# [2] = target: B. cereus 569/H/9 β-lactamase I (Bacillus cereus, UniProt P00809); details: 250 nM of the 30-mer (23×IC50); 1.1 mM benzylpenicillin, 50 mM MOPS pH 7.0; listed as 30-mer
# Chain of B. cereus 569/H/9 β-lactamase I (P00809 28-306): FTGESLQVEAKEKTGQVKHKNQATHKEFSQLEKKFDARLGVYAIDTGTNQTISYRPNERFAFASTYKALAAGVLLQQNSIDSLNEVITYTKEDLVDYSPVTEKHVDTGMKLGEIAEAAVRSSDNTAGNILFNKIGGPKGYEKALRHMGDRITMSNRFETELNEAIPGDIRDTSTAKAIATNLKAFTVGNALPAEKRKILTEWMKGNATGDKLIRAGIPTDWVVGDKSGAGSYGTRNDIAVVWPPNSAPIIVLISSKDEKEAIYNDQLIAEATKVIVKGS
# Method: The β-lactamase I activity assays used was modified from Davies et al. (1974), which described a general method of β-lactamase I activity assays. Briefly, the enzyme was incubated with 20 mM EDTA (pH 7.0) for 15 min. at room temperature prior to the assay. The enzymatic hydrolysis of 1.1 mM benzylpenicillin in […] MOPS (pH 7.0) and 1 mM EDTA was continuously monitored at 231 nm at 30° C. in a 1-cm pathlength quartz cell in a total volume of 1 mL. One unit of β-lactamase activity was generally defined as the amount of enzyme required to hydrolyze about one μmole of substrate/min. at 30° C. at pH 7.0.
# An experiment was performed to test the specificity of inhibition of the 30-mer (Seq ID No.:6). The inhibition of B. cereus 569/H/9 β-lactamase I (Seq ID No.:7) was tested using various concentrations of the 30-mer RNA. The concentration of the substrate (benzylpenicillin) was 1.1 mM in the buffer (50 mM MOPS (pH 7.0)/1 […] EDTA).
# [3] = target: T1, bovine carboxypeptidase A (Bos taurus, UniProt P00730); assay: Inhibition of carboxypeptidase A (hydrolysis of hippuryl-L-phenylalanine, 254 nm); type: biochemical; details: 250 nM of the 30-mer (23×IC50), 1 mM hippuryl-L-phenylalanine, 0.05 M Tris-HCl pH 7.5, 0.5 M NaCl
# T1 construct: purchased Sigma
# T1 sequence (P00730 111-419): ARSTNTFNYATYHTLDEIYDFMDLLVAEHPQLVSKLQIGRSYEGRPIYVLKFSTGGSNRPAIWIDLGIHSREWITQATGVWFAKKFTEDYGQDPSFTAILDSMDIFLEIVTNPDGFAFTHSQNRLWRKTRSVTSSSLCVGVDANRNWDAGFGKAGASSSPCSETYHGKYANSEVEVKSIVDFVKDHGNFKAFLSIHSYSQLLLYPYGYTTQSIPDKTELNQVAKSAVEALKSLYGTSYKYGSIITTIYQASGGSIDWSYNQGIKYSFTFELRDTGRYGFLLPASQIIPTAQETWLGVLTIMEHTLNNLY
# Method: Assay of bovine carboxypeptidase A. The assay of bovine carboxypeptidase A is based on the method of Folk and Schirmer (1963). The rate of hydrolysis of hippuryl-L-phenylalanine is determined by monitoring the increase in absorbance at 254 nm (25° C., pH 7.5). The enzyme was dissolved in 10% lithium chloride to a concentration of 1-3 units per mL. Hippuryl-L-phenylalanine (0.001 M) was dissolved in 0.05 M Tris-HCl, pH 7.5, with 0.5 M sodium chloride. In a 1-cm pathlength cuvette, 1.0 mL of substrate was added and incubated in the spectrophotometer at 25° C. for 3-4 minutes to reach temperature equilibration and to establish blank rate. 50 μL of diluted enzyme was added to record the increase in AbS254.
# In addition, the zinc dependent bovine carboxypeptidase A was used to test the specificity of inhibition by this 30-mer. […] The concentration of the substrate (hippuryl-L-phenylalanine) was 1 mM in the buffer (0.05 M Tris-HCl, pH 7.5, with 0.5 M sodium chloride).
# Chain of B. cereus 5/B/6 metallo-β-lactamase (P14488 29-256, looked up, natural form): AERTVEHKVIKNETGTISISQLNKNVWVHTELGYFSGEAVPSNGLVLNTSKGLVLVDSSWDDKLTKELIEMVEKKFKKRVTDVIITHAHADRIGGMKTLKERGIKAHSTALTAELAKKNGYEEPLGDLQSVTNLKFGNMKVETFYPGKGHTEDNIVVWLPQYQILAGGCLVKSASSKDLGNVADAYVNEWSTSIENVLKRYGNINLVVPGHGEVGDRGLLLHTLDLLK
substance,measurement,setting,value
"5′-UGGCUGCAGGGUCUGGCCCCCCGUUUGGUG-3′ (UGGCUGCAGGGUCUGGCCCCCCGUUUGGUG; chemistry not given here) [30-mer RNA, 30-mer RNA aptamer selected by twelve rounds of SELEX against B. cereus 5/B/6 metallo-β-lactamase]",IC50,"[1]; read-out: IC50 for B. cereus 5/B/6 metallo-β-lactamase in the presence of Zn2+ ions, 50 mM MOPS and 1 mM ZnSO4, pH 7.0",19.3 µM
same,IC50,"[1]; read-out: IC50 for B. cereus 5/B/6 metallo-β-lactamase, 50 mM MOPS pH 7.0, no added Zn2+",0.011 µM
same,Ki,"[1]; read-out: Ki (dissociation constant for the inhibitor from the enzyme-inhibitor complex), slope replot",2 nM
same,Ki,"[1]; read-out: Ki′ (dissociation constant for the inhibitor from the enzyme-substrate-inhibitor complex), intercept replot",15 nM
same,"IC50 / inhibition of metallo-β-lactamase, range in words",[1]; stated in words,nanomolar range
same,type of inhibition,"[1]; steady-state kinetic study, Lineweaver-Burk plot",noncompetitive inhibition
same,effect on the activity of B. cereus 569/H/9 β-lactamase I,[2],no effect
same,effect on the activity of carboxypeptidase A,[3],lack of inhibition; also recorded: do not show inhibition
same,effect on the activity of carboxypeptidase A,[3]; listed as 30-mer,no effect
